Reference: BindingDB's records for doi:10.3109/14756369709035816 (R & D, Zambon Group, 1997)
pIC50: −log10 of the molar value.

Target: T1, Neprilysin (Rattus norvegicus, UniProt P07861)
T1 sequence (P07861 whole entry): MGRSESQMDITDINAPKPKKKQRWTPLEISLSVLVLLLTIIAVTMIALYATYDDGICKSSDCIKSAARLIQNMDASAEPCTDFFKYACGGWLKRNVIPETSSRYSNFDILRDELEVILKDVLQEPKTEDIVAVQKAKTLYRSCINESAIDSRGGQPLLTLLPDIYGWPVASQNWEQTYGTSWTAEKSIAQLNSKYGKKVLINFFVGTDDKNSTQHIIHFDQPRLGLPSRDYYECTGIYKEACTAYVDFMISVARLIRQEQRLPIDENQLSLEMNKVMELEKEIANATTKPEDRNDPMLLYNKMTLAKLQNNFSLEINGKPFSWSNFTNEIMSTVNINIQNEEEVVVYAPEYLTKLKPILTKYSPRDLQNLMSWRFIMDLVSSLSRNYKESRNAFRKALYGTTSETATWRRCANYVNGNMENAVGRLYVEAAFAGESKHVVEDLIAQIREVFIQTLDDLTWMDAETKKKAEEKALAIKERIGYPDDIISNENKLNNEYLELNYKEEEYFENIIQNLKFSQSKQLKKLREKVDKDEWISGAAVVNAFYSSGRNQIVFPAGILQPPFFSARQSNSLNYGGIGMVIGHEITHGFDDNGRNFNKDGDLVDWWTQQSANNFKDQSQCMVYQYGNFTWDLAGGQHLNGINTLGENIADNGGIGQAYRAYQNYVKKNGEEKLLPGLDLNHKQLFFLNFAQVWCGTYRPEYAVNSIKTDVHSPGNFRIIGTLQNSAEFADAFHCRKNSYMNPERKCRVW
Test: Enzyme Inhibition Assay
Details: 25 °C
From the text: Enzyme inhibition assay using neutrol endopeptiase EC 3.4.24.11 (NEP).

| pIC50 | Structure (SMILES) |
| --- | --- |
| 7.22 | CC(CS)C(=O)Nc1cncc(C(=O)O)c1 (configuration not stated) [NEP inhibitor, 6g] |
| 8.26 | O=C(O)c1ccnc(NC(=O)C(CS)Cc2ccc3c(c2)OCO3)c1 (configuration not stated) [NEP inhibitor, 6j] |
| 7.89 | O=C(O)c1cc(NC(=O)C(CS)Cc2cccnc2)cs1 (configuration not stated) [NEP inhibitor, 6l] |
| 8.70 | O=C(O)c1cc(NC(=O)C(CS)Cc2ccccc2)cs1 (configuration not stated) [NEP inhibitor, 6k] |
| 8.30 | CN(C)C(=O)c1ccnc(NC(=O)C(CS)Cc2ccccc2)c1 (configuration not stated) [NEP inhibitor, 6r] |
| 7.64 | O=C(Nc1ccn[nH]1)C(CS)Cc1ccccc1 (configuration not stated) [NEP inhibitor, 6q] |
| 8.70 | O=C(O)c1cc(NC(=O)C(CS)Cc2ccc(Cl)cc2)c[nH]1 (configuration not stated) [NEP inhibitor, 6n] |
| 6.60 | O=C(Nc1ccccc1)c1ccnc(NC(=O)C(CS)Cc2ccccc2)c1 (configuration not stated) [NEP inhibitor, 6s] |
| 8.70 | O=C(O)c1cc(NC(=O)C(CS)Cc2ccccc2)c[nH]1 (configuration not stated) [NEP inhibitor, 6m] |
| 8.05 | O=C(O)c1csc(NC(=O)C(CS)Cc2ccccc2)n1 (configuration not stated) [NEP inhibitor, 6p] |
| 8.30 | O=C(O)c1cncc(NC(=O)C(CS)Cc2ccccc2)c1 (configuration not stated) [NEP inhibitor, 6h] |
| 8.52 | O=C(O)c1ccnc(NC(=O)C(CS)Cc2ccccc2)c1 (configuration not stated) [NEP inhibitor, 6i] |
